# Data published in PubChem BioAssay (NCI).
#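 Values below derive from 48-hour exposures of cells grown in 96-well plates, with endpoints linearly interpolated between the two concentrations bracketing the appropriate inhibition level. Definition used: TGI = concentration required for complete inhibition of growth.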
# Legend:
# Test in all cases: NCI anticancer screen, dose series, 48 h
# DU-145 prostate = tested on: DU-145 prostate
# HOP-92 NSCLC = tested on: HOP-92 NSCLC
# SNB-19 CNS = tested on: SNB-19 CNS
# OVCAR-3 ovarian = tested on: OVCAR-3 ovarian
# BT-549 breast = tested on: BT-549 breast
# OVCAR-8 ovarian = tested on: OVCAR-8 ovarian
# RPMI-8226 leukemia = tested on: RPMI-8226 leukemia
# NCI-H23 lung = tested on: NCI-H23 lung
# M14 melanoma = tested on: M14 melanoma
# HCT-15 colon = tested on: HCT-15 colon
# COLO 205 colon = tested on: COLO 205 colon
# MCF7 breast = tested on: MCF7 breast
# OVCAR-4 ovarian = tested on: OVCAR-4 ovarian
# RXF 393 renal = tested on: RXF 393 renal
# ACHN renal = tested on: ACHN renal
# EKVX NSCLC = tested on: EKVX NSCLC
# UO-31 renal = tested on: UO-31 renal
# TK-10 renal = tested on: TK-10 renal
# MALME-3M melanoma = tested on: MALME-3M melanoma
# UACC-257 melanoma = tested on: UACC-257 melanoma
# LOX IMVI melanoma = tested on: LOX IMVI melanoma
# HCT-116 colon = tested on: HCT-116 colon
# 786-0 renal = tested on: 786-0 renal
# SW-620 colon = tested on: SW-620 colon
# CAKI-1 renal = tested on: CAKI-1 renal
# HS 578T breast = tested on: HS 578T breast
# SK-MEL-5 melanoma = tested on: SK-MEL-5 melanoma
# MDA-MB-435 = tested on: MDA-MB-435
# HCC-2998 colon = tested on: HCC-2998 colon
# SK-OV-3 ovarian = tested on: SK-OV-3 ovarian
# SK-MEL-28 melanoma = tested on: SK-MEL-28 melanoma
# HOP-62 NSCLC = tested on: HOP-62 NSCLC
# MDA-MB-231 breast = tested on: MDA-MB-231 breast
# A498 renal = tested on: A498 renal
# SF-268 CNS = tested on: SF-268 CNS
# U251 CNS = tested on: U251 CNS
# IGROV1 ovarian = tested on: IGROV1 ovarian
# NCI/ADR-RES ovarian = tested on: NCI/ADR-RES ovarian
# HL-60(TB) leukemia = tested on: HL-60(TB) leukemia
# KM12 colon = tested on: KM12 colon
# CCRF-CEM leukemia = tested on: CCRF-CEM leukemia
# T-47D breast = tested on: T-47D breast
# OVCAR-5 ovarian = tested on: OVCAR-5 ovarian
# NCI-H522 lung = tested on: NCI-H522 lung
# K-562 leukemia = tested on: K-562 leukemia
# NCI-H226 lung = tested on: NCI-H226 lung
# HT29 colon = tested on: HT29 colon
# MOLT-4 leukemia = tested on: MOLT-4 leukemia
# A549 NSCLC = tested on: A549 NSCLC
# MDA-N = tested on: MDA-N
# SK-MEL-2 melanoma = tested on: SK-MEL-2 melanoma
# SF-295 CNS = tested on: SF-295 CNS
# SN12C renal = tested on: SN12C renal
# PC-3 prostate = tested on: PC-3 prostate
# NCI-H460 lung = tested on: NCI-H460 lung
# SF-539 CNS = tested on: SF-539 CNS
# UACC-62 melanoma = tested on: UACC-62 melanoma
# SNB-75 CNS = tested on: SNB-75 CNS
smiles,measurement,setting,value
OCCSCc1cc2c(O)c(c1)Cc1cc(CSCCO)cc(c1O)Cc1cc(CSCCO)cc(c1O)Cc1cc(CSCCO)cc(c1O)C2,TGI,DU-145 prostate,23.5 µM
same,TGI,HOP-92 NSCLC,15.2 µM
same,TGI,SNB-19 CNS,15.9 µM
same,TGI,OVCAR-3 ovarian,4.27 µM
same,TGI,BT-549 breast,11.7 µM
same,TGI,OVCAR-8 ovarian,17.6 µM
same,TGI,RPMI-8226 leukemia,30.6 µM
same,TGI,NCI-H23 lung,16.7 µM
same,TGI,M14 melanoma,12.7 µM
same,TGI,HCT-15 colon,33 µM
same,TGI,COLO 205 colon,7.31 µM
same,TGI,MCF7 breast,14.5 µM
same,TGI,OVCAR-4 ovarian,13.9 µM
same,TGI,RXF 393 renal,18.3 µM
same,TGI,ACHN renal,9.61 µM
same,TGI,EKVX NSCLC,46.1 µM
same,TGI,UO-31 renal,28.3 µM
same,TGI,TK-10 renal,37 µM
same,TGI,MALME-3M melanoma,5.88 µM
same,TGI,UACC-257 melanoma,27.7 µM
same,TGI,LOX IMVI melanoma,11.9 µM
same,TGI,HCT-116 colon,13 µM
same,TGI,786-0 renal,12.5 µM
same,TGI,SW-620 colon,15.1 µM
same,TGI,CAKI-1 renal,9.63 µM
same,TGI,HS 578T breast,42.8 µM
same,TGI,SK-MEL-5 melanoma,4.4 µM
same,TGI,MDA-MB-435,9.04 µM
same,TGI,HCC-2998 colon,23.1 µM
same,TGI,SK-OV-3 ovarian,31.7 µM
same,TGI,SK-MEL-28 melanoma,13.1 µM
same,TGI,HOP-62 NSCLC,15.6 µM
same,TGI,MDA-MB-231 breast,7.21 µM
same,TGI,A498 renal,17.3 µM
same,TGI,SF-268 CNS,7.78 µM
same,TGI,U251 CNS,16.8 µM
same,TGI,IGROV1 ovarian,10.9 µM
same,TGI,NCI/ADR-RES ovarian,64.2 µM
same,TGI,HL-60(TB) leukemia,> 100 µM
same,TGI,KM12 colon,17.1 µM
same,TGI,CCRF-CEM leukemia,68.2 µM
same,TGI,T-47D breast,26.3 µM
same,TGI,OVCAR-5 ovarian,18.9 µM
same,TGI,NCI-H522 lung,14.7 µM
same,TGI,K-562 leukemia,> 100 µM
same,TGI,NCI-H226 lung,37.5 µM
same,TGI,HT29 colon,7.4 µM
same,TGI,MOLT-4 leukemia,> 100 µM
same,TGI,A549 NSCLC,20.4 µM
same,TGI,MDA-N,11.8 µM
same,TGI,SK-MEL-2 melanoma,5.25 µM
same,TGI,SF-295 CNS,16.7 µM
same,TGI,SN12C renal,22.7 µM
same,TGI,PC-3 prostate,8.88 µM
same,TGI,NCI-H460 lung,7.84 µM
same,TGI,SF-539 CNS,12.6 µM
CCOC(=O)c1nnsc1NC(=O)Nc1ccc(Cl)cc1,TGI,DU-145 prostate,> 100 µM
same,TGI,SNB-19 CNS,> 100 µM
same,TGI,OVCAR-3 ovarian,> 100 µM
same,TGI,BT-549 breast,> 100 µM
same,TGI,OVCAR-8 ovarian,41.2 µM
same,TGI,RPMI-8226 leukemia,> 100 µM
same,TGI,NCI-H23 lung,> 100 µM
same,TGI,M14 melanoma,> 100 µM
same,TGI,HCT-15 colon,> 100 µM
same,TGI,COLO 205 colon,> 100 µM
same,TGI,UACC-62 melanoma,> 100 µM
same,TGI,OVCAR-4 ovarian,51.2 µM
same,TGI,RXF 393 renal,> 100 µM
same,TGI,ACHN renal,> 100 µM
same,TGI,EKVX NSCLC,> 100 µM
same,TGI,UO-31 renal,> 100 µM
same,TGI,TK-10 renal,> 100 µM
same,TGI,MALME-3M melanoma,> 100 µM
same,TGI,UACC-257 melanoma,> 100 µM
same,TGI,HCT-116 colon,70.5 µM
same,TGI,786-0 renal,42.4 µM
same,TGI,SW-620 colon,> 100 µM
same,TGI,HS 578T breast,> 100 µM
same,TGI,SK-MEL-5 melanoma,> 100 µM
same,TGI,MDA-MB-435,> 100 µM
same,TGI,HCC-2998 colon,> 100 µM
same,TGI,SK-MEL-28 melanoma,> 100 µM
same,TGI,HOP-62 NSCLC,> 100 µM
same,TGI,MDA-MB-231 breast,52.7 µM
same,TGI,SF-268 CNS,> 100 µM
same,TGI,U251 CNS,> 100 µM
same,TGI,IGROV1 ovarian,> 100 µM
same,TGI,NCI/ADR-RES ovarian,72.5 µM
same,TGI,KM12 colon,> 100 µM
same,TGI,CCRF-CEM leukemia,> 100 µM
same,TGI,T-47D breast,> 100 µM
same,TGI,OVCAR-5 ovarian,> 100 µM
same,TGI,SNB-75 CNS,88 µM
same,TGI,NCI-H522 lung,50.1 µM
same,TGI,K-562 leukemia,> 100 µM
same,TGI,NCI-H226 lung,> 100 µM
same,TGI,HT29 colon,> 100 µM
same,TGI,MOLT-4 leukemia,> 100 µM
same,TGI,A549 NSCLC,> 100 µM
same,TGI,MDA-N,> 100 µM
same,TGI,SK-MEL-2 melanoma,> 100 µM
same,TGI,SN12C renal,> 100 µM
same,TGI,PC-3 prostate,> 100 µM
same,TGI,NCI-H460 lung,32.1 µM
